Patent US11667651B2, “Aminopyridine derivatives as phosphatidylinositol phosphate kinase inhibitors” (HiberCell, Inc., priority 2017, dated 2023)
pIC50: −log10 of the molar value.

Tests used:
Format in all cases: biochemical
PIP4K2A [1] = molecular target: T1, PIP4K2A (Homo sapiens, UniProt P48426); assay: ADP-glo kinase assay PIP4K 2A (Table 3); parameters: made in house; host or cells: E. coli; details: compounds listed under IC50 bins
T1 sequence (P48426 1-406): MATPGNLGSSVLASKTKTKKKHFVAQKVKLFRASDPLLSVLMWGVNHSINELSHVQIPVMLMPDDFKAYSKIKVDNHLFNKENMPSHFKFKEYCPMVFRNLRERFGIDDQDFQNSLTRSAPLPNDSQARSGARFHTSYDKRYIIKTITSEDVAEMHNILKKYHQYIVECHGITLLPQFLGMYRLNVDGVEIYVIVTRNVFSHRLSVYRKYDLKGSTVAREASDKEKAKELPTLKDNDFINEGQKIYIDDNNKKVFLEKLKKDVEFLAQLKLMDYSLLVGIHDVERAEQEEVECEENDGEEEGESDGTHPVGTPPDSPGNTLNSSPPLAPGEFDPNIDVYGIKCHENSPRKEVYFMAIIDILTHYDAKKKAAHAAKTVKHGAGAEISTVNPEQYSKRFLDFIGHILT
In short: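 ADP-Glo luminescence detected ADP after 1 h RT reaction started by ATP (60 μM solution) on full-length PIP4K2A (4 nM in mix) and PI(5)P diC8 (100 μM in mix), preceded by 15 min enzyme-compound preincubation in MOPS pH 7.2/25 mM MgCl2. Percent inhibition versus DMSO over 10 concentrations fitted for IC50.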

PIP4K2B = molecular target: T2, PIP4K2B (Homo sapiens, UniProt P78356); assay: Trans-FI P kinase assay PIP4K2B (Table 4); details: compounds listed under IC50 bins; read-out: Trans-FI P kinase assays: PIP4K2B IC50
T2 construct: made in house; host or cells: E. coli
T2 sequence (P78356 1-416): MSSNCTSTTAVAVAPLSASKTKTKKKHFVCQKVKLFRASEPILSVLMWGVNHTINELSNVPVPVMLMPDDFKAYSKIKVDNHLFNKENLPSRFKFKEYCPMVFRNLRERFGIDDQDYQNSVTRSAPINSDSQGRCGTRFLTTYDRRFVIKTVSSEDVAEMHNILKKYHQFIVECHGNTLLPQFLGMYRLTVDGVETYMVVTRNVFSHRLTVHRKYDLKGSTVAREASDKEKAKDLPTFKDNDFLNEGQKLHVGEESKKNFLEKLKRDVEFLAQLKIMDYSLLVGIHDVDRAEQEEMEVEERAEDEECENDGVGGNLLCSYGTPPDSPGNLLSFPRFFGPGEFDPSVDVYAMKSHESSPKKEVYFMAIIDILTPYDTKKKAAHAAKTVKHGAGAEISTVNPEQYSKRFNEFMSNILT
In short: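 Transcreener FI detection (Ex 584/Em 623) of GDP, converted via calibration curve, gives IC50 from residual activity versus log concentration (highest 4.8 μM). Reaction: 80 μM PI5P plus DOPE carrier, 100 μM GTP, 5 nM GST-tagged enzyme, pH 7.3 HEPES with MgCl2 and 5% DMSO, 2 h after 1 h enzyme-compound preincubation at 27° C.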

PIP4K2A [2] = molecular target: T1, PIP4K2A; assay: Kinase Assay PIP4K2 A (Table 2); parameters: 4 nM PIP4K2A (full length protein, SignalChem); purchased SignalChem; details: compounds listed under IC50 bins
In short: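 ADP-Glo luminescent read-out after 1 h room-temperature kinase reaction, started with 60 μM ATP solution following 15 min compound pre-incubation. Enzyme/substrate mix: 4 nM full-length PIP4K2A plus 100 μM PI(5)P diC8; buffer MOPS pH 7.2 with 25 mM MgCl2 and Tween 20. IC50 from 10-point, 3-fold titrations normalized to DMSO.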

Row | Structure (SMILES) | pIC50 (PIP4K2A [1]) | pIC50 (PIP4K2B) | pIC50 (PIP4K2A [2])
1 | COC(=O)Nc1cncc(Nc2ccc(-c3ccc(C(=O)N(C)C)cc3)cn2)c1 [Example 120, methyl(5-((5-(4-(dimethylcarbamoyl)phenyl)pyridin-2-yl)amino)pyridin-3-yl)carbamate] | 6.00 to 7.00 | 7.00 to 8.00 | 7.00 to 8.00
2 | CN(C)C(=O)c1ccc(-c2ccc(Nc3ccc(CNC(=O)c4cccc(NC(=O)OC(C)(C)C)c4)nc3)nc2)cc1 [Example 104, tert-butyl (3-(((5-((5-(4-(dimethylcarbamoyl)phenyl)pyridin-2-yl)amino)pyridin-2-yl)methyl)carbamoyl)phenyl)carbamate] | < 6.00 | < 6.00 | 6.00 to 7.00
3 | CN(C)C(=O)c1ccc(-c2ccc(Nc3cncc(NC(=O)CCc4cccc(NC(=O)CCCCCN)c4)c3)nc2)cc1 [Example 111, 4-(6-((5-(3-(3-(6-aminohexanamido)phenyl)propanamido)pyridin-3-yl)amino)pyridin-3-yl)-N,N-dimethylbenzamide] | 8.00 to 9.00 | 7.00 to 8.00 | 8.00 to 9.00
4 | CN(C)C(=O)c1ccc(-c2ccc(Nc3cncc(NC(=O)c4cccc(NC(=O)CCOCCOCCN)c4)c3)nc2)cc1 [Example 113, 4-(6-((5-(3-(3-(2-(2-aminoethoxy)ethoxy)propanamido)benzamido)pyridin-3-yl)amino)pyridin-3-yl)-N,N-dimethylbenzamide] | 7.00 to 8.00 | 7.00 to 8.00 | 7.00 to 8.00
5 | CN(C)C(=O)c1ccc(-c2ccc(Nc3cncc(N4CCN(Cc5ccccc5)C4=O)c3)nc2)cc1 [Example 73, 4-(6-((5-(3-benzyl-2-oxoimidazolidin-1-yl)pyridin-3-yl)amino)pyridin-3-yl)-N,N-dimethylbenzamide] | 8.00 to 9.00 | 7.00 to 8.00 | 8.00 to 9.00
6 | CC(C)(C)C(=O)N1CCOc2ncc(Nc3ccc(-c4ccc(N5CCCC5=O)cc4)cn3)cc21 [Example 155, 1-(4-(6-((1-pivaloyl-2,3-dihydro-1H-pyrido[2,3-b][1,4]oxazin-7-yl)amino)pyridin-3-yl)phenyl)pyrrolidin-2-one] | 8.00 to 9.00 | 7.00 to 8.00 | 8.00 to 9.00
7 | CN(C)C(=O)c1ccc(-c2ccc(Nc3cncc(NC(=O)CCc4cccc(NC(=O)CN)c4)c3)nc2)cc1 [Example 107, 4-(6-((5-(3-(3-(2-aminoacetamido)phenyl)propanamido)pyridin-3-yl)amino)pyridin-3-yl)-N,N-dimethylbenzamide] | 6.00 to 7.00 | 7.00 to 8.00 | 6.00 to 7.00
8 | CN(C)C(=O)c1ccc(-c2ccc(Nc3cncc(NC(=O)CCc4ccc(N)cc4)c3)nc2)cc1 [Example 118, 4-(6-((5-(3-(4-aminophenyl)propanamido)pyridin-3-yl)amino)pyridin-3-yl)-N,N-dimethylbenzamide] | 7.00 to 8.00 | 7.00 to 8.00 | 7.00 to 8.00
9 | COc1ncc(Nc2ccc(-c3ccc(N4CCCC4=O)cc3)cn2)cc1NC(C)=O [Example 158, N-(2-methoxy-5-((5-(4-(2-oxopyrrolidin-1-yl)phenyl)pyridin-2-yl)amino)pyridin-3-yl)acetamide] | 6.00 to 7.00 | 7.00 to 8.00 | 6.00 to 7.00
10 | CN(C)C(=O)c1ccc(-c2ccc(Nc3cncc(NC(=O)c4cccc5[nH]cnc45)c3)nc2)cc1 [Example 232, N-(5-((5-(4-(dimethylcarbamoyl)phenyl)pyridin-2-yl)amino)pyridin-3-yl)-1H-benzo[d]imidazole-7-carboxamide] | 7.00 to 8.00 | 7.00 to 8.00 | 8.00 to 9.00
11 | CN(C)C(=O)c1cccc2ncc(Nc3ccc(-c4ccc(N5CCCC5=O)cc4)cn3)cc12 [Example 147, N,N-dimethyl-3-((5-(4-(2-oxopyrrolidin-1-yl)phenyl)pyridin-2-yl)amino)quinoline-5-carboxamide] | 6.00 to 7.00 | < 6.00 | 6.00 to 7.00
12 | CN(C)C(=O)c1ccc(-c2ccc(Nc3cnc4c(c3)N(C(=O)C(C)(C)CO)CCO4)nc2)cc1 [Example 96, 4-(6-((1-(3-hydroxy-2,2-dimethylpropanoyl)-2,3-dihydro-1H-pyrido[2,3-b][1,4]oxazin-7-yl)amino)pyridin-3-yl)-N,N-dimethylbenzamide] | 7.00 to 8.00 | 7.00 to 8.00 | 8.00 to 9.00
13 | CN(C)C/C=C/C(=O)Nc1ccc(CCC(=O)Nc2cncc(Nc3ccc(-c4ccc(C(=O)N(C)C)cc4)cn3)c2)cc1 [Example 119, (E)-4-(6-((5-(3-(4-(4-(dimethylamino)but-2-enamido)phenyl)propanamido)pyridin-3-yl)amino)pyridin-3-yl)-N,N-dimethylbenzamide] | 7.00 to 8.00 | 7.00 to 8.00 | 8.00 to 9.00
14 | COc1ncc(Nc2ccc(-c3ccc(N4CCCC4=O)cc3)cn2)cc1N(C)C(C)=O [Example 160, N-(2-methoxy-5-((5-(4-(2-oxopyrrolidin-1-yl)phenyl)pyridin-2-yl)amino)pyridin-3-yl)-N-methylacetamide] | < 6.00 | < 6.00 | < 6.00
15 | CN(C)C(=O)c1ccc(-c2ccc(Nc3cncc(NC(=O)CCc4cccc(N)c4)c3)nc2)cc1 [Example 102, 4-(6-((5-(3-(3-aminophenyl)propanamido)pyridin-3-yl)amino)pyridin-3-yl)-N,N-dimethylbenzamide] | 7.00 to 8.00 | 7.00 to 8.00 | 8.00 to 9.00
16 | CC(C)S(=O)(=O)N1CCOc2ncc(Nc3ccc(-c4ccc(N5CCCC5=O)cc4)cn3)cc21 [Example 153, 1-(4-(6-((1-(isopropylsulfonyl)-2,3-dihydro-1H-pyrido[2,3-b][1,4]oxazin-7-yl)amino)pyridin-3-yl)phenyl)pyrrolidin-2-one] | 6.00 to 7.00 | 7.00 to 8.00 | 7.00 to 8.00
17 | CC1(C)C[C@H]2COc3ncc(Nc4ccc(-c5ccc(N6CCCC6=O)c(F)c5)cn4)cc3N2C1=O [Example 258, (S)-2-((5-(3-fluoro-4-(2-oxopyrrolidin-1-yl)phenyl)pyridin-2-yl)amino)-8,8-dimethyl-6,6a,7,8-tetrahydro-9H-pyrido[2,3-b]pyrrolo[1,2-d][1,4]oxazin-9-one] | 8.00 to 9.00 | 7.00 to 8.00 | 8.00 to 9.00
18 | CC(=O)N1CCOc2ncc(Nc3ccc(-c4ccc(N5CCCC5=O)cc4)cn3)cc21 [Example 86, 1-(4-(6-((1-acetyl-2,3-dihydro-1H-pyrido[2,3-b][1,4]oxazin-7-yl)amino)pyridin-3-yl)phenyl)pyrrolidin-2-one] | 7.00 to 8.00 | 7.00 to 8.00 | 8.00 to 9.00
19 | C[C@H](c1ccccc1)N1CCN(c2cncc(Nc3ccc(-c4ccc(C(=O)N(C)C)cc4)cn3)c2)C1=O [Example 81, (R)—N,N-dimethyl-4-(6-((5-(2-oxo-3-(1-phenylethyl)imidazolidin-1-yl)pyridin-3-yl)amino)pyridin-3-yl)benzamide] | 8.00 to 9.00 | 7.00 to 8.00 | ≥ 9.00
20 | CN(C)C/C=C/C(=O)Nc1cccc(C(=O)Nc2cncc(Nc3ccc(-c4ccc(C(=O)N(C)C)cc4)cn3)c2)c1 [Example 100, (E)-4-(6-((5-(3-(4-(dimethylamino)but-2-enamido)benzamido)pyridin-3-yl)amino)pyridin-3-yl)-N,N-dimethylbenzamide] | 7.00 to 8.00 | 7.00 to 8.00 | 8.00 to 9.00
21 | CCO[C@H]1C[C@@H]1C(=O)Nc1cncc(Nc2ccc(-c3ccc(N4CCCC4=O)cc3)cn2)c1 [Example 252, (1S,2S)-2-ethoxy-N-(5-((5-(4-(2-oxopyrrolidin-1-yl)phenyl)pyridin-2-yl)amino)pyridin-3-yl)cyclopropane-1-carboxamide] | 7.00 to 8.00 | 7.00 to 8.00 | 8.00 to 9.00
